Here are results for 13 compounds from PubChem BioAssay (NCI).

Where “and” joins values, the source holds several entries; their conditions need not be identical. Identical values can stand only once.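 Each compound was tested at five concentrations against cells in 96-well plates for 48 hours. GI50 = concentration required for 50% inhibition of growth. TGI: concentration producing complete growth inhibition.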 A value given as a limit tells only on which side of the number the result lay.

Common to all, as to experiment: inhibition of tumour cell growth, NCI panel, 48 h
In assay [1] the test system is OVCAR-8 ovarian.
Assay [2] deals with KM12 colon.
Assay [3] has as its system SK-MEL-5 melanoma.
Assay [4] concerns U251 CNS.
The test system of assay [5] is HCC-2998 colon.
The subject of assay [6] is HOP-92 NSCLC.

As to `O=C(CI)NC1Oc2ccccc2-c2oc(=O)c(-c3ccccc3)cc21` (stereo not given), the GI50 in assay [1] was 1.79 µM; in assay [2] it was 1.77 µM; in assay [3] it was 3.26 µM; in assay [4] it was 1.73 µM; in assay [5], 8.46 µM. For the same compound, the TGI in assay [1] is 4.47 µM; in assay [2] it was 3.46 µM; in assay [3] it was 11.4 µM; in assay [4], 3.22 µM; in assay [5], 26.6 µM.
In the case of `N#C/C(=C1C=C/C(=N/O)C(Br)=C/1)c1ccccc1`, the GI50 in assay [1] is 2.61 µM; in assay [2], 0.347 µM; in assay [3] it was 2.75 µM; in assay [4], 2.44 µM; in assay [6], 0.385 µM; in assay [5], 5.02 µM. For the same compound, the TGI amounted to 8.41 µM in assay [1]; 1.42 µM in assay [2]; 10.4 µM in assay [3]; 8.01 µM in assay [4]; 3.77 µM in assay [6]; 20.7 µM in assay [5].
Consider `Cn1c(N2NC(=O)C(N=Nc3ccc(S(N)(=O)=O)cc3)C2=O)nc(-c2ccco2)c(C#N)c1=O` (stereo not given), for which the GI50 was greater than 50 µM in assay [1]; greater than 50 µM in assay [2]; 35.3 µM in assay [3]; 42.3 µM in assay [4]; 25.5 µM in assay [6]. The TGI in assay [1], in assay [2], in assay [3], in assay [4] and in assay [6] was greater than 50 µM throughout.
With `CCOC(=O)CCc1cc(=O)oc2cc(O)cc(O)c12`, the TGI in assay [1], in assay [2], in assay [3], in assay [4], in assay [6] and in assay [5] was greater than 100 µM each time.
For the compound `CC[CH2][Pb]([CH2]CC)([CH2]CC)[O]C(=O)C(F)(F)F`, the GI50 in assay [2] was 0.125 µM; in assay [3], 0.127 µM; in assay [4] it was 0.156 µM; in assay [6], 0.0291 µM; in assay [5] it was 0.163 µM. Moreover, the TGI was determined as 0.33 µM in assay [2]; 0.264 µM in assay [3]; 0.348 µM in assay [4]; 0.223 µM in assay [6]; 0.343 µM in assay [5].
Turning to `C=C(CN1CCc2ccccc2C1)c1ccc(C(=O)Nc2cnccn2)cc1`, the GI50 in assay [1] is 30.2 µM; in assay [2] it was 12.5 µM; in assay [3] it was 20.8 µM; in assay [4], 16.2 µM; in assay [5], 36.1 µM. Moreover, the TGI in assay [1] is greater than 100 µM; in assay [2], 56.5 µM; in assay [3], 61 µM; in assay [4], greater than 100 µM; in assay [5], greater than 100 µM.
As for `C[C@]12CC[C@H](O)CC1=CC[C@@H]1[C@@H]2CC[C@]2(C)C(c3cccnc3)=CC[C@@H]12`, the GI50 is 29.5 µM in assay [1]; 76.3 µM in assay [2]; 46.1 µM in assay [3]; 12.3 µM in assay [4]; 8.7 µM in assay [6]; greater than 100 µM in assay [5]. Moreover, the TGI is greater than 100 µM in assay [1]; greater than 100 µM in assay [2]; greater than 100 µM in assay [3]; greater than 100 µM in assay [4]; greater than 55.9 µM in assay [6]; greater than 100 µM in assay [5].
As for `Cc1c(C(=O)N/N=C/c2ccc(Cl)cc2)nnn1-c1ccnc2c(C(F)(F)F)cccc12`, the GI50 in assay [1] is 2.25 µM; in assay [2], 8.94 µM; in assay [3], 28.4 µM; in assay [6], 3.62 µM; in assay [5] it was 9.54 µM. The TGI was 4.71 µM in assay [1]; 41.7 µM in assay [2]; greater than 100 µM in assay [3]; 16.2 µM in assay [6]; 53.1 µM in assay [5].
Consider `O=C(NCCOCCOCCNc1cccc2c1C(=O)N(C1CCCNC1=O)C2=O)c1cc2c(o1)C(=O)c1ccccc1C2=O` (stereo not given), for which the GI50 is 2.31 µM in assay [1]; 2.91 µM in assay [2]; 0.707 µM in assay [3]; 1.9 µM in assay [4]; 3.31 µM in assay [6]; 2.01 µM in assay [5]. Further, the TGI worked out at 10.6 µM in assay [1]; 10 µM in assay [2]; 1.99 µM in assay [3]; 3.9 µM in assay [4]; 13.6 µM in assay [6]; 4.02 µM in assay [5].
As for `COc1cccc(-c2cc(=O)c3cc(N(C)C)ccc3[nH]2)c1`, the TGI was 94.6 nM [middle of 4 runs] in assay [1]; 1.06 µM and 0.119 µM and 0.766 µM in assay [2]. Besides, the GI50 is 0.0334 µM and 0.0159 µM in assay [2]; 0.0125 µM and 0.00356 µM in assay [3]; 0.0182 µM and 0.00594 µM in assay [4]; 0.0472 µM and 0.0229 µM in assay [5].
`CCOC(=O)/C=C(/C(=O)OCC)n1cc(Cl)c(=O)n(CC(=O)OCC)c1=O`: the GI50 in assay [1] is 12.6 µM; in assay [2], 21.2 µM; in assay [4], 21 µM. In addition, the TGI is 8.43 µM and 28.4 µM in assay [1]; > 25 µM and 43.8 µM in assay [2]; 9.28 µM and 30.6 µM in assay [3]; 13.6 µM and 38.9 µM in assay [4]; 9.3 µM in assay [6].
For the compound `CCNCCNc1cc(-c2ccc(C(=O)OC)cc2)c(C#N)c2nc3ccccc3n12`, the GI50 is 2.13 µM in assay [1]; 2.59 µM in assay [2]; 1.7 µM in assay [3]; 1.53 µM in assay [4]; 2.23 µM in assay [6]; 2.3 µM in assay [5]. Also, the TGI in assay [1] was 5.32 µM; in assay [2], greater than 100 µM; in assay [3], 3.11 µM; in assay [4], 3.11 µM; in assay [6], 4.36 µM; in assay [5] it was greater than 100 µM.
For `O=C(Nc1ccc(N2CCNCC2)cc1)c1[nH]ncc1Nc1cc(Oc2ccccc2)ncn1`, the GI50 in assay [1] was 2.91 µM; in assay [2], 0.216 µM; in assay [3], 1.43 µM; in assay [4], 2.12 µM; in assay [6] it was 2.35 µM; in assay [5], 1.95 µM. Moreover, the TGI in assay [1] was 12.2 µM; in assay [2] it was 0.521 µM; in assay [3], 3 µM; in assay [4], 10.5 µM; in assay [6] it was 5.32 µM; in assay [5] it was 4.2 µM.
